Laboratory results: article PMC5640562, “Synthesis and anticancer activity of novel quinazolinone-based rhodanines” (Chemistry Central Journal, 2017)

system: HT-1080 cells; assay: MTT cytotoxicity assay, HT-1080 fibrosarcoma cells; assay type: cell-based, human; settings: Homo sapiens, HT-1080, 72 h, 3 days incubation, mean of three independent experiments (± standard deviation)
Method: The compounds were tested for their cytotoxic activity on a solid tumor cell line, i.e. HT-1080 originating from a fibrosarcoma (American Type Culture Collection; ATCC, Rockville, MD, USA), and on two leukemia cell lines, i.e. the HL-60 human promyelocytic leukemia (European Collection of Animal Cell Cultures; ECACC, Salisbury, UK) and the K-562 human chronic myelogenous leukemia (ATCC). Furthermore, the human skin fibroblast strain AG01523 (Coriell Institute for Medical Research, Camden, NJ, USA) was also used as normal control. Adherent cells were routinely cultured in Dulbecco’s […] (DMEM), and leukemia cells in RPMI 1640, in an environment of 5% CO2, 85% humidity, and 37 °C. All media were supplemented with penicillin (100 U/ml), streptomycin (100 μg/ml) (media and antibiotics from Biochrom KG, Berlin, Germany), and 10% fetal bovine serum (Life Technologies Europe BV, Thessaloniki, Greece). Adherent cells were subcultured using a trypsin (0.25%; Life Technologies Europe BV)—citrate (0.30%; Sigma, St. Louis, MO, USA) solution. The cytotoxicity assay was performed by a modification of the MTT method. Briefly, the cells were plated in flat-bottomed 96-well microplates at a density of 5000 cells/well, and incubated overnight before the addition of serial dilutions of the test compounds. The cells were incubated with the compounds or the corresponding vehicle (DMSO) concentrations for 3 days. Then, the medium was replaced with MTT (Sigma) in serum-free, phenol-red-free DMEM (1 mg/ml). After incubation for 4 h, the MTT formazan was solubilized in 2-propanol, and the optical density was measured using a FLUOstar Optima (BMG Labtech, Ortenberg, Germany) microplate reader at a wavelength of 550 nm (reference wavelength 660 nm). Doxorubicin hydrochloride (Sigma) was included in the experiments as positive control. The results represent the mean of three independent experiments and are expressed as IC50 [42].

| Compound | IC50 [µM] |
| --- | --- |
| O=C1NC(=S)SC1=Cc1ccc(OCc2nc3ccccc3c(=O)n2-c2ccccc2)cc1 [Compound 31, 5-{4-[(3-Phenyl-4-oxo-3,4-dihydroquinazolin-2-yl)methoxy]benzylidene}-2-thioxothiazolidin-4-one] | 42.9 |
| O=C1NC(=S)SC1=Cc1ccc(OCc2nc3ccccc3c(=O)n2-c2ccc(F)cc2)cc1 [Compound 32, 5-{4-[(3-(4-Fluorophenyl)-4-oxo-3,4-dihydroquinazolin-2-yl)methoxy]benzylidene}-2-thioxothiazolidin-4-one] | 47.3 |
| O=C1NC(=S)SC1=Cc1ccc(OCc2nc3ccccc3c(=O)n2-c2ccc(Cl)cc2)cc1 [Compound 33, 5-{4-[(3-(4-Chlorophenyl)-4-oxo-3,4-dihydroquinazolin-2-yl)methoxy]benzylidene}-2-thioxothiazolidin-4-one] | 35.3 |
| O=C1NC(=S)SC1=Cc1ccc(OCc2nc3ccccc3c(=O)n2-c2cccc(Cl)c2)cc1 [Compound 34, 5-{4-[(3-(3-Chlorophenyl)-4-oxo-3,4-dihydroquinazolin-2-yl)methoxy]benzylidene}-2-thioxothiazolidin-4-one] | 57.1 |
| O=C1NC(=S)SC1=Cc1ccc(OCc2nc3ccccc3c(=O)n2-c2ccc(Br)cc2)cc1 [Compound 35, 5-{4-[(3-(4-Bromophenyl)-4-oxo-3,4-dihydroquinazolin-2-yl)methoxy]benzylidene}-2-thioxothiazolidin-4-one] | 28.8 |
| O=C1NC(=S)SC1=Cc1ccc(OCc2nc3ccccc3c(=O)n2-c2cccc(Br)c2)cc1 [Compound 36, 5-{4-[(3-(3-Bromophenyl)-4-oxo-3,4-dihydroquinazolin-2-yl)methoxy]benzylidene}-2-thioxothiazolidin-4-one] | 43.4 |
| Cc1ccc(-n2c(COc3ccc(C=C4SC(=S)NC4=O)cc3)nc3ccccc3c2=O)cc1 [Compound 38, 5-{4-[(3-(4-Methylphenyl)-4-oxo-3,4-dihydroquinazolin-2-yl)methoxy]benzylidene}-2-thioxothiazolidin-4-one] | 35.7 |
| Cc1cccc(-n2c(COc3ccc(C=C4SC(=S)NC4=O)cc3)nc3ccccc3c2=O)c1 [Compound 39, 5-{4-[(3-(3-Methylphenyl)-4-oxo-3,4-dihydroquinazolin-2yl)methoxy]benzylidene}-2-thioxothiazolidin-4-one] | 47.5 |
| COc1cc(C=C2SC(=S)NC2=O)ccc1OCc1nc2ccccc2c(=O)n1-c1ccccc1 [Compound 41, 5-{4-[(3-Phenyl-4-oxo-3,4-dihydroquinazolin-2-yl)methoxy]-3-methoxybenzylidene}-2-thioxothiazolidin-4-one] | 36.1 |
| COc1cc(C=C2SC(=S)NC2=O)ccc1OCc1nc2ccccc2c(=O)n1-c1cccc(Br)c1 [Compound 46, 5-{4-[(3-(3-Bromophenyl)-4-oxo-3,4-dihydroquinazolin-2-yl)methoxy]-3-methoxybenzylidene}-2-thioxothiazolidin-4-one] | 23.7 |
| COc1cc(C=C2SC(=S)NC2=O)ccc1OCc1nc2ccccc2c(=O)n1-c1ccc(C)cc1 [Compound 48, 5-{4-[(3-(4-Methylphenyl)-4-oxo-3,4-dihydroquinazolin-2-yl)methoxy]-3-methoxybenzylidene}-2-thioxothiazolidin-4-one] | 31.5 |
| COc1cc(C=C2SC(=S)NC2=O)ccc1OCc1nc2ccccc2c(=O)n1-c1cccc(C)c1 [Compound 49, 5-{4-[(3-(3-Methylphenyl)-4-oxo-3,4-dihydroquinazolin-2-yl)methoxy]-3-methoxybenzylidene}-2-thioxothiazolidin-4-one] | 30.7 |
| COc1ccc(-n2c(COc3ccc(C=C4SC(=S)NC4=O)cc3OC)nc3ccccc3c2=O)cc1 [Compound 50, 5-{4-[(3-(4-Methoxyphenyl)-4-oxo-3,4-dihydroquinazolin-2-yl)methoxy]-3-methoxybenzylidene}-2-thioxothiazolidin-4-one] | 34.7 |

system: not given; assay: not given; settings: not given

| Compound | melting point |
| --- | --- |
| O=C1NC(=S)SC1=Cc1ccc(OCc2nc3ccccc3c(=O)n2-c2ccc(F)cc2)cc1 (hydrate or solvate) [Compound 32, 5-{4-[(3-(4-Fluorophenyl)-4-oxo-3,4-dihydroquinazolin-2-yl)methoxy]benzylidene}-2-thioxothiazolidin-4-one] | 231 to 233 °C (dec.) |
| O=C1NC(=S)SC1=Cc1ccc(OCc2nc3ccccc3c(=O)n2-c2ccc(Cl)cc2)cc1 (hydrate or solvate) [Compound 33, 5-{4-[(3-(4-Chlorophenyl)-4-oxo-3,4-dihydroquinazolin-2-yl)methoxy]benzylidene}-2-thioxothiazolidin-4-one] | 121 to 123 °C |
| O=C1NC(=S)SC1=Cc1ccc(OCc2nc3ccccc3c(=O)n2-c2cccc(Cl)c2)cc1 (hydrate or solvate) [Compound 34, 5-{4-[(3-(3-Chlorophenyl)-4-oxo-3,4-dihydroquinazolin-2-yl)methoxy]benzylidene}-2-thioxothiazolidin-4-one] | 237 to 239 °C |
| O=C1NC(=S)SC1=Cc1ccc(OCc2nc3ccccc3c(=O)n2-c2ccc(Br)cc2)cc1 (hydrate or solvate) [Compound 35, 5-{4-[(3-(4-Bromophenyl)-4-oxo-3,4-dihydroquinazolin-2-yl)methoxy]benzylidene}-2-thioxothiazolidin-4-one] | 171 to 174 °C |
| O=C1NC(=S)SC1=Cc1ccc(OCc2nc3ccccc3c(=O)n2-c2ccccc2)cc1 [Compound 31, 5-{4-[(3-Phenyl-4-oxo-3,4-dihydroquinazolin-2-yl)methoxy]benzylidene}-2-thioxothiazolidin-4-one] | 230 to 232 °C |

Results, then the compound that gave them:

| melting point | Compound |
| --- | --- |
| 252 to 254 °C | O=C1NC(=S)SC1=Cc1ccc(OCc2nc3ccccc3c(=O)n2-c2cccc(Br)c2)cc1 (hydrate or solvate) [Compound 36, 5-{4-[(3-(3-Bromophenyl)-4-oxo-3,4-dihydroquinazolin-2-yl)methoxy]benzylidene}-2-thioxothiazolidin-4-one] |
| 153 to 155 °C | O=C1NC(=S)SC1=Cc1ccc(OCc2nc3ccccc3c(=O)n2-c2ccc(C(F)(F)F)cc2)cc1 (hydrate or solvate) [Compound 37, 5-{4-[(3-(4-Trifluoromethylphenyl)-4-oxo-3,4-dihydroquinazolin-2-yl)methoxy]benzylidene}-2-thioxothiazolidin-4-one] |
| 148 to 150 °C | Cc1ccc(-n2c(COc3ccc(C=C4SC(=S)NC4=O)cc3)nc3ccccc3c2=O)cc1 (hydrate or solvate) [Compound 38, 5-{4-[(3-(4-Methylphenyl)-4-oxo-3,4-dihydroquinazolin-2-yl)methoxy]benzylidene}-2-thioxothiazolidin-4-one] |
| 243 to 246 °C | COc1cc(C=C2SC(=S)NC2=O)ccc1OCc1nc2ccccc2c(=O)n1-c1ccccc1 (hydrate or solvate) [Compound 41, 5-{4-[(3-Phenyl-4-oxo-3,4-dihydroquinazolin-2-yl)methoxy]-3-methoxybenzylidene}-2-thioxothiazolidin-4-one] |
| 239 to 241 °C | COc1cc(C=C2SC(=S)NC2=O)ccc1OCc1nc2ccccc2c(=O)n1-c1ccc(Cl)cc1 (hydrate or solvate) [Compound 43, 5-{4-[(3-(4-Chlorophenyl)-4-oxo-3,4-dihydroquinazolin-2-yl)methoxy]-3-methoxybenzylidene}-2-thioxothiazolidin-4-one] |
| 214 to 217 °C | COc1cc(C=C2SC(=S)NC2=O)ccc1OCc1nc2ccccc2c(=O)n1-c1ccc(Br)cc1 (hydrate or solvate) [Compound 45, 5-{4-[(3-(4-Bromophenyl)-4-oxo-3,4-dihydroquinazolin-2-yl)methoxy]-3-methoxybenzylidene}-2-thioxothiazolidin-4-one] |
| 243 to 245 °C | COc1cc(C=C2SC(=S)NC2=O)ccc1OCc1nc2ccccc2c(=O)n1-c1cccc(Br)c1 (hydrate or solvate) [Compound 46, 5-{4-[(3-(3-Bromophenyl)-4-oxo-3,4-dihydroquinazolin-2-yl)methoxy]-3-methoxybenzylidene}-2-thioxothiazolidin-4-one] |
| 172 to 175 °C | COc1cc(C=C2SC(=S)NC2=O)ccc1OCc1nc2ccccc2c(=O)n1-c1ccc(C)cc1 (hydrate or solvate) [Compound 48, 5-{4-[(3-(4-Methylphenyl)-4-oxo-3,4-dihydroquinazolin-2-yl)methoxy]-3-methoxybenzylidene}-2-thioxothiazolidin-4-one] |
| 154 to 156 °C | COc1cc(C=C2SC(=S)NC2=O)ccc1OCc1nc2ccccc2c(=O)n1-c1cccc(C)c1 (hydrate or solvate) [Compound 49, 5-{4-[(3-(3-Methylphenyl)-4-oxo-3,4-dihydroquinazolin-2-yl)methoxy]-3-methoxybenzylidene}-2-thioxothiazolidin-4-one] |
| 148 to 150 °C | COc1ccc(-n2c(COc3ccc(C=C4SC(=S)NC4=O)cc3OC)nc3ccccc3c2=O)cc1 (hydrate or solvate) [Compound 50, 5-{4-[(3-(4-Methoxyphenyl)-4-oxo-3,4-dihydroquinazolin-2-yl)methoxy]-3-methoxybenzylidene}-2-thioxothiazolidin-4-one] |
| 165 to 168 °C | Cc1cccc(-n2c(COc3ccc(C=C4SC(=S)NC4=O)cc3)nc3ccccc3c2=O)c1 [Compound 39, 5-{4-[(3-(3-Methylphenyl)-4-oxo-3,4-dihydroquinazolin-2yl)methoxy]benzylidene}-2-thioxothiazolidin-4-one] |
